The source of these data is US20250320202A1, “PRMT5 INHIBITOR, PREPARATION METHOD THEREFOR, AND PHARMACEUTICAL USE THEREOF” (Abbisko Therapeutics Co., Ltd., priority 2022, published 2025).

For assay [1], the system named is HCT116 MTAP knockout cells. As to the kind of experiment: Human colon cancer HCT116 cell proliferation inhibition test (CellTiter-Glo, 6 days), MTAP knockout cells. It counts as cell-based. As to conditions: HCT-116, 144 h. Here is the method:
(§1) 1. HCT116 MTAP knockout and MTAP wild-type cells were plated in 96-well flat bottom plates, and cultured overnight with McCoy's 5A medium containing 10% fetal bovine serum+1% penicillin-streptomycin at 37° C. and 5% CO2.
(§2) 2. On the next day, the compound was dissolved with DMSO, diluted with DMSO and medium successively and transferred to the cell plate. The final concentration of the compound was 10 μM, the compound was diluted 4 times, with 9 concentration gradients, and DMSO control was added.
(§3) 3. Cells that have not been treated with the compound were removed. CellTiter-Glo Luminescent Cell Viability Assay (Promega) was used to detect cell viability, the operation was performed with reference to the package insert of the kit, and then the cell plate was placed on EnVision Multilabel Reader to detect the cold light signal.
(§4) 4. Meanwhile, the cell plate treated with the compound was cultured at 37° C. and 5% CO2 for 6 consecutive days.
(§5) 5. Then, CellTiter-Glo was also used to detect cell viability.
(§6) 6. Finally, the four-parameter dose-response curve module of GraphPad Prism v 9.2.0 software was used to plot the dose-response curve and calculate the IC50 for proliferation inhibition (unit: nM).
(Cellular ATP, detected with luciferase, serves as a proxy for viable cell number.)

The test system of assay [2] is HCT116 MTAP wild-type cells. The experiment in a line: Human colon cancer HCT116 cell proliferation inhibition test (CellTiter-Glo, 6 days), MTAP wild-type cells. The assay is classed as cell-based. As to conditions: HCT-116, 144 h. Here is the method: as §1, §2, §3, §4, §5, §6

For orientation: IC50 means the concentration at which inhibition is half-maximal. A high value points to weaker potency. As for `Nc1nc2ccc(C(=O)N(CC3CC3)[C@H]3COc4cc(C(F)(F)F)ccc43)cc2c2cnccc12` [Example 193, (R)-5-amino-N-(cyclopropylmethyl)-N-(6-(trifluoromethyl)-2,3-dihydrobenzofuran-3-yl)benzo[c][2,6]naphthyridin-9-carboxamide], the IC50 in assay [1] stood at 452 nM; in assay [2], 9090 nM.

`Nc1nc2ccc(C(=O)N(CC3CC3)[C@@H]3COc4nc(C(F)(F)F)ccc43)cc2c2cnccc12` [Example 195, (S)-5-amino-N-(cyclopropylmethyl)-N-(6-(trifluoromethyl)-2,3-dihydrofuro[2,3-b]pyridin-3-yl)benzo[c][2,6]naphthyridin-9-carboxamide]: the figures for the IC50 in assay [1] and in assay [2] were 8.6 nM and 423 nM, respectively.

In the case of `Cn1ccc(N(C(=O)c2cc3c(cc2F)nc(N)c2cnn(C)c23)[C@@H]2CCc3cc(C(F)(F)F)ccc32)n1` [Example 197, (R)-4-amino-7-fluoro-1-methyl-N-(1-methyl-1H-pyrazol-3-yl)-N-(5-(trifluoromethyl)-2,3-dihydro-1H-inden-1-yl)-1H-pyrazolo[4,3-c]quinolin-8-carboxamide], the half-maximal inhibitory concentration (IC50) came to 0.9 nM in assay [1] and 264 nM in assay [2].

For `Cn1cc(N(C(=O)c2cc3c4c(c(N)nc3cc2F)COC4)[C@@H]2COc3cc(C(F)(F)F)ccc32)cn1` [Example 201, (S)-4-amino-7-fluoro-N-(1-methyl-1H-pyrazol-4-yl)-N-(6-(trifluoromethyl)-2,3-dihydrobenzofuran-3-yl)-1,3-dihydrofuro[3,4-c]quinolin-8-carboxamide], the IC50 in assay [1] is 2 nM; in assay [2] it was 78 nM.

Turning to `C[C@H]1OCc2c1c(N)nc1cc(F)c(C(=O)N(c3cnn(C)c3)[C@@H]3COc4cc(C(F)(F)F)ccc43)cc21` [Example 202, (R)-4-amino-7-fluoro-3-methyl-N-(1-methyl-1H-pyrazol-4-yl)-N-((S)-6-(trifluoromethyl)-2,3-dihydrobenzofuran-3-yl)-1,3-dihydrofuro[3,4-c]quinolin-8-carboxamide], the values for the concentration for half-maximal inhibition (IC50) in assay [1] and in assay [2] were 2 nM and 36 nM, respectively.

`Cn1ncc2c(N)nc3cc(F)c(C(=O)N(c4cnsc4)[C@@H]4CCc5cc(C(F)(F)F)ccc54)cc3c21` [Example 203, (R)-4-amino-7-fluoro-N-(isothiazol-4-yl)-1-methyl-N-(5-(trifluoromethyl)-2,3-dihydro-1H-inden-1-yl)-1H-pyrazolo[4,3-c]quinolin-8-carboxamide]: the IC50 turned out to be 9 nM in assay [1] and 104 nM in assay [2].

For `Nc1nc2ccc(C(=O)N(c3cnsc3)[C@@H]3CCc4cc(C(F)(F)F)ccc43)cc2c2cnccc12` [Example 204, (R)-5-amino-N-(isothiazol-4-yl)-N-(5-(trifluoromethyl)-2,3-dihydro-1H-inden-1-yl)benzo[c][2,6]naphthyridin-9-carboxamide], the IC50 in assay [1] came to 6 nM; in assay [2] it was 293 nM.

With `Cn1cc(N(C(=O)c2cc3c(cc2F)nc(N)c2cnn(C)c23)[C@@H]2COc3cc(C(F)(F)F)ccc32)cn1` [Example 205, (S)-4-amino-7-fluoro-1-methyl-N-(1-methyl-1H-pyrazol-4-yl)-N-(6-(trifluoromethyl)-2,3-dihydrobenzofuran-3-yl)-1H-pyrazolo[4,3-c]quinolin-8-carboxamide], the IC50 in assay [1] amounted to 0.8 nM; in assay [2], 64 nM.

For `Cn1cc(N(C(=O)c2cc3c(cc2F)nc(N)c2cnn(C)c23)[C@H]2COc3cc(C(F)(F)F)ccc32)cn1` [Example 206, (R)-4-amino-7-fluoro-1-methyl-N-(1-methyl-1H-pyrazol-4-yl)-N-(6-(trifluoromethyl)-2,3-dihydrobenzofuran-3-yl)-1H-pyrazolo[4,3-c]quinolin-8-carboxamide], the results for the IC50 in assay [1] and in assay [2] were 82 nM and 8470 nM, respectively.

As for `C[C@H]1OCc2c1c(N)nc1cc(F)c(C(=O)N(c3cnn(C)c3)[C@@H]3COc4nc(C(F)(F)F)ccc43)cc21` [Example 208, (R)-4-amino-7-fluoro-3-methyl-N-(1-methyl-1H-pyrazol-4-yl)-N-((S)-6-(trifluoromethyl)-2,3-dihydrofuro[2,3-b]pyridin-3-yl)-1,3-dihydrofuro[3,4-c]quinolin-8-carboxamide], the IC50 in assay [1] amounted to 4 nM; in assay [2], 130 nM.

Turning to `Cn1cc(N(C(=O)c2cc3c4c(c(N)nc3cc2F)COC4)[C@@H]2COc3nc(C(F)(F)F)ccc32)cn1` [Example 209, (S)-4-amino-7-fluoro-N-(1-methyl-1H-pyrazol-4-yl)-N-(6-(trifluoromethyl)-2,3-dihydrofuro[2,3-b]pyridin-3-yl)-1,3-dihydrofuro[3,4-c]quinolin-8-carboxamide], the IC50 in assay [1] stood at 4 nM; in assay [2] it was 279 nM.

With `Nc1nc2ccc(C(=O)N(c3ncccn3)C3CCc4cc(C(F)(F)F)ccc43)cc2c2cnccc12` (stereo not drawn) [Example 210, 5-amino-N-(pyrimidin-2-yl)-N-(5-(trifluoromethyl)-2,3-dihydro-1H-inden-1-yl)benzo[c][2,6]naphthyridin-9-carboxamide], the IC50 worked out at 63 nM in assay [1] and 7400 nM in assay [2].

In the case of `Nc1nc2cc(F)c(C(=O)N(c3cscn3)[C@@H]3CCc4cc(C(F)(F)F)ccc43)cc2c2c1COC2` [Example 213, (R)-4-amino-7-fluoro-N-(thiazol-4-yl)-N-(5-(trifluoromethyl)-2,3-dihydro-1H-inden-1-yl)-1,3-dihydrofuro[3,4-c]quinolin-8-carboxamide], the half-inhibitory concentration (IC50) in assay [1] worked out at 3 nM; in assay [2], 70 nM.

In the case of `Cn1cc(N(C(=O)c2cc3c4c(c(N)nc3cc2F)COC4)[C@@H]2CCc3cc(C(F)(F)F)ccc32)cn1` [Example 220, (R)-4-amino-7-fluoro-N-(1-methyl-1H-pyrazol-4-yl)-N-(5-(trifluoromethyl)-2,3-dihydro-1H-inden-1-yl)-1,3-dihydrofuro[3,4-c]quinolin-8-carboxamide], the IC50 in assay [1] is 17 nM; in assay [2], 335 nM.

Take `C[C@H](c1ncccn1)N(C(=O)c1cc2c(cc1F)nc(N)c1cnn(C)c12)[C@@H]1CCc2cc(C(F)(F)F)ccc21` [Example 221, 4-amino-7-fluoro-1-methyl-N-((R)-1-(pyrimidin-2-yl)ethyl)-N-((R)-5-(trifluoromethyl)-2,3-dihydro-1H-inden-1-yl)-1H-pyrazolo[4,3-c]quinolin-8-carboxamide]: the IC50 was 88 nM in assay [1] and 1340 nM in assay [2].

In the case of `Nc1nc2ccc(C(=O)N(C3CC3)C3CCc4nc(C(F)(F)F)ccc43)cc2c2cnccc12` (stereo not drawn) [Example 225, 5-amino-N-cyclopropyl-N-(2-(trifluoromethyl)-6,7-dihydro-5H-cyclopenta[b]pyridin-5-yl)benzo[c][2,6]naphthyridin-9-carboxamide], the IC50 is 286 nM in assay [1] and 9470 nM in assay [2].

As for `Cn1cc(N(C(=O)c2ccc3nc(N)c4ccncc4c3c2)[C@@H]2CCc3cc(C(F)(F)F)ccc32)cn1` [Example 226, (R)-5-amino-N-(1-methyl-1H-pyrazol-4-yl)-N-(5-(trifluoromethyl)-2,3-dihydro-1H-inden-1-yl)benzo[c][2,6]naphthyridin-9-carboxamide], the results for the IC50 in assay [1] and in assay [2] were 50 nM and 1950 nM, respectively.

As to `CN(C(=O)c1ccc2nc(N)c3ccncc3c2c1)[C@@H]1CCc2cc(C(F)(F)F)ccc21` [Example 227, (R)-5-amino-N-methyl-N-(5-(trifluoromethyl)-2,3-dihydro-1H-inden-1-yl)benzo[c][2,6]naphthyridin-9-carboxamide], the IC50 in assay [1] turned out to be 85 nM; in assay [2] it was 1070 nM.
